This note sets out measurements from PubChem BioAssay AID1332 (Southern Research Institute, 2008).

The test system of the assay is M. tuberculosis H37Rv growth inhibition. The assay is described as follows: Mycobacterium tuberculosis H37Rv growth inhibition, confirmatory dose response, cytotoxicity (AID 1332).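 Note: bacteria incubated 7 days before adding Alamar blue readout reagent.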

Values after ≈ are worked out from the molar mass of the structure shown. Starred links: 1 amine or outer side, 2 acyl side, 3 side chain; linkers in the order of their positions; H or OH if unused. Positions of bridges follow the written chain, without caps; N, C: chain ends. Non-standard residues stand in square brackets, D forms with d. Residues, ends and D or L forms follow the SMILES beside them. *: point of attachment. X2 = NC1=N[C@@H]([C@H](N[*:1])C(=O)[*:2])C[C@H](O)N1; ΔAla(Z-3-ureido) = NC(=O)N/C=C(\N)C(=O)O; β3hOrn = NCCC[C@H](N)CC(=O)*; Dap = NC[C@H](N)C(=O)O

For `CC/C(=C(\c1ccccc1)c1ccc(OCCN(C)C)cc1)c1ccccc1`, the 90% effect concentration (IC90) (commonly the concentration needed for an effect of 90%) is 13.6 µg/mL (≈ 36.7 µM).

As to `CC[C@@]1([C@@H]2O[C@@H]([C@H]3O[C@@](O)(CO)[C@H](C)C[C@@H]3C)C[C@@H]2C)CC[C@H]([C@]2(C)CC[C@]3(C[C@H](O)[C@@H](C)[C@@H]([C@@H](C)[C@@H](OC)[C@H](C)C(=O)O)O3)O2)O1`, the IC90 is 4.12 µg/mL (≈ 6.15 µM).

In the case of `N[C@@H](C(=O)N[C@@H]1C(=O)N2C(C(=O)O)=C(Cl)CS[C@H]12)c1ccccc1`, the IC90 was 11.3 µg/mL (≈ 30.6 µM).

For the compound `Cc1c2ccncc2c(C)c2c1[nH]c1ccccc12`, the IC90 was 0.17 µg/mL (≈ 0.69 µM).

For `C[n+]1cc2c3c(ccc2c2ccc4cc5c(cc4c21)OCO5)OCO3`, the 90% effect concentration (IC90) was 7.62 µg/mL.

Regarding `NNC(=O)c1ccncc1`, the concentration for an effect of 90% (IC90) was 10.4 µg/mL (≈ 75.5 µM).

On to `COc1cc(NC(C)CCCN)c2ncccc2c1` (stereo not given), for which the 90% effect concentration (IC90) is 14.5 µg/mL (≈ 55.9 µM).

For `Oc1c(I)cc(Cl)c2cccnc12`, the IC90 is 0.482 µg/mL (≈ 1.58 µM).

`Cc1cc(NS(=O)(=O)c2ccc(N)cc2)no1`: the concentration for an effect of 90% (IC90) is 4.34 µg/mL (≈ 17.1 µM).

Consider `O=C(Nc1ccc([N+](=O)[O-])cc1Cl)c1cc(Cl)ccc1O`, for which the 90% effect concentration (IC90) is 0.076 µg/mL (≈ 0.232 µM).

As to `NCCC[C@H](N)CC(=O)N[C@H]1CNC(=O)[C@H]([C@H]2C[C@H](O)NC(N)=N2)NC(=O)/C(=C/NC(N)=O)NC(=O)[C@H](CO)NC(=O)[C@H](CO)NC1=O` (β3hOrn-[Dap]SS[ΔAla(Z-3-ureido)][X2]; lactam 1-C), the concentration for an effect of 90% (IC90) is 0.069 µg/mL (≈ 0.101 µM).

On to `COc1cc2cc3c4cc(OC)c(OC)cc4cc[n+]3c(C)c2cc1OC`, for which the IC90 is 2.13 µg/mL.

As to `CO[C@@H]1[C@@H](OC(N)=O)[C@@H](O)C(Oc2ccc3c(O)c(NC(=O)c4ccc(O)c(CC=C(C)C)c4)c(=O)oc3c2C)OC1(C)C` (stereo not given in full), the IC90 was 4.96 µg/mL (≈ 8.1 µM).

Turning to `Fc1ccc(C(OCCN2CCN(CCCc3ccccc3)CC2)c2ccc(F)cc2)cc1`, the IC90 was 3.58 µg/mL (≈ 7.94 µM).

Consider `O=C1NCN(c2ccccc2)C12CCN(CCCC(c1ccc(F)cc1)c1ccc(F)cc1)CC2`, for which the IC90 was 2.64 µg/mL (≈ 5.56 µM).

For the compound `Clc1ccc(COC(Cn2ccnc2)c2ccc(Cl)cc2Cl)cc1` (stereo not given), the IC90 is 1.98 µg/mL (≈ 5.18 µM).

`Fc1ccc(C(c2ccc(F)cc2)N2CCN(C/C=C/c3ccccc3)CC2)cc1`: the IC90 was 6.62 µg/mL (≈ 16.4 µM).

For `CN(C)CCCN1c2ccccc2Sc2ccc(Cl)cc21`, the 90% effect concentration (IC90) is 7.45 µg/mL (≈ 23.4 µM).

For `COc1ccc(CCN2CCC(Nc3nc4ccccc4n3Cc3ccc(F)cc3)CC2)cc1`, the concentration for an effect of 90% (IC90) was 6.79 µg/mL (≈ 14.8 µM).

`CN[C@@H]1[C@@H](O)[C@@H](O[C@@H]2[C@@H](O)[C@H](O[C@H]3O[C@H]([C@@H](C)N)CC[C@H]3N)[C@@H](N)C[C@H]2N)OC[C@]1(C)O`: the 90% effect concentration (IC90) was 0.859 µg/mL (≈ 1.85 µM).

As for `Clc1ccc(C(Cn2ccnc2)OCc2c(Cl)cccc2Cl)c(Cl)c1` (stereo not given), the concentration for an effect of 90% (IC90) was 2.51 µg/mL (≈ 6.04 µM).

`N=C(N)c1ccc(OCCCCCOc2ccc(C(=N)N)cc2)cc1`: the IC90 is 1.68 µg/mL (≈ 4.93 µM).

As to `CC(NCCC(c1ccccc1)c1ccccc1)c1ccccc1` (stereo not given), the 90% effect concentration (IC90) is 8.02 µg/mL (≈ 25.4 µM).

Regarding `CC1=CC(=O)c2ccccc2C1=O`, the concentration for an effect of 90% (IC90) is 5.38 µg/mL (≈ 31.2 µM).

For the compound `CC[C@H](CO)NCCN[C@H](CC)CO`, the IC90 is 0.191 µg/mL (≈ 0.935 µM).

With `COc1cc(NS(=O)(=O)c2ccc(N)cc2)ncn1`, the IC90 was 3.78 µg/mL (≈ 13.5 µM).

For `O=C1C=CC(=O)c2c1ccc1c2ccc2ccccc21`, the IC90 was 2.17 µg/mL (≈ 8.42 µM).

Take `Nc1ccc(S(=O)(=O)Nc2cnc3ccccc3n2)cc1`: the IC90 is 12.7 µg/mL (≈ 42.3 µM).

`C=C(NC(=O)C(=C)NC(=O)c1csc(C2=N[C@H]3c4csc(n4)[C@H]4NC(=O)c5csc(n5)[C@H]([C@@](C)(O)[C@@H](C)O)NC(=O)[C@H]5CSC(=N5)/C(=C\C)NC(=O)[C@H]([C@@H](C)O)NC(=O)c5csc(n5)[C@]3(CC2)NC(=O)[C@H](C)NC(=O)C(=C)NC(=O)[C@H](C)NC(=O)[C@H](C(C)CC)N[C@@H]2C=Cc3c([C@H](C)O)cc(nc3[C@H]2O)C(=O)O[C@@H]4C)n1)C(N)=O` (stereo not given in full): the 90% effect concentration (IC90) is 0.357 µg/mL (≈ 0.214 µM).

As for `NC(=NCCCCCCN=C(N)/N=C(\N)Nc1ccc(Cl)cc1)/N=C(\N)Nc1ccc(Cl)cc1`, the IC90 is 0.295 µg/mL (≈ 0.584 µM).

Turning to `CCN(CC)CCOc1ccc(/C(=C(/Cl)c2ccccc2)c2ccccc2)cc1`, the concentration for an effect of 90% (IC90) was 6.13 µg/mL (≈ 15.1 µM).

For the compound `Clc1ccc(C(Cn2ccnc2)OCc2csc3c(Cl)cccc23)c(Cl)c1` (stereo not given), the 90% effect concentration (IC90) is 3.41 µg/mL (≈ 7.8 µM).

For the compound `NC[C@H]1O[C@H](O[C@H]2[C@H](O)[C@@H](O[C@H]3O[C@H](CO)[C@@H](O)[C@H](N)[C@H]3O)[C@H](N)C[C@@H]2N)[C@H](N)C[C@@H]1O`, the concentration for an effect of 90% (IC90) was 1.94 µg/mL (≈ 4.16 µM).

For `O=C(O)c1cn(C2CC2)c2cc(N3CCNCC3)c(F)cc2c1=O`, the IC90 is 0.042 µg/mL (≈ 0.127 µM).

Turning to `O=c1[nH]c2ccccc2n1C1CCN(CCCC(c2ccc(F)cc2)c2ccc(F)cc2)CC1`, the concentration for an effect of 90% (IC90) was 2.34 µg/mL (≈ 5.06 µM).

With `Cc1c(OCC(F)(F)F)ccnc1CS(=O)c1nc2ccccc2[nH]1` (stereo not given), the concentration for an effect of 90% (IC90) is 10.1 µg/mL (≈ 27.5 µM).

Turning to `CSc1ccc2c(c1)N(CCC1CCCCN1C)c1ccccc1S2` (stereo not given), the concentration for an effect of 90% (IC90) is 3.01 µg/mL (≈ 8.13 µM).

On to `CC[C@H]1OC(=O)[C@H](C)[C@@H](OC2C[C@@](C)(OC)[C@@H](O)[C@H](C)O2)[C@H](C)[C@@H](O[C@@H]2O[C@H](C)C[C@H](N(C)C)[C@H]2O)[C@](C)(O)C[C@@H](C)/C(=N\OCOCCOC)[C@H](C)[C@@H](O)[C@]1(C)O` (stereo not given in full), for which the 90% effect concentration (IC90) is 11.5 µg/mL (≈ 13.7 µM).

`CNCCCC12CCC(c3ccccc31)c1ccccc12`: the IC90 was 17.9 µg/mL (≈ 64.5 µM).

For `CC(Cc1ccccc1)NCCC(c1ccccc1)c1ccccc1` (stereo not given), the IC90 is 4.55 µg/mL (≈ 13.8 µM).
